According to US20180368427A1, “Method of Reducing Spoilage in Harvested Produce During Storage and Shipping” (Apeel Technology, Inc., priority 2016, published 2018):

Tested on: strawberries
Assay: Average daily mass loss rate of coated strawberries stored at low relative humidity
Conditions: over 4 days, 10 mg/mL in ethanol, spray coated, 23-27° C., 40-55% humidity (FIG. 7A), listed as pure PA-2G formulation (712)
Description: FIG. 7A is a graph showing average daily mass loss rates for coated and uncoated harvested strawberries stored at low relative humidity levels for 4 days. The coating agents included various mixtures of PA-1G and PA-2G, as detailed below. Each bar in the graph represents average daily mass loss rates for a group of 15 strawberries. The strawberries corresponding to bar 702 were untreated (control group). The strawberries corresponding to bar 704 were treated with a solution for which the coating agent was substantially pure PA-1G. The strawberries corresponding to bar 706 were treated with a solution for which the coating agent was 75% PA-1G and 25% PA-2G by mass. The strawberries corresponding to bar 708 were treated with a solution for which the coating agent was 50% PA-1G and 50% PA-2G by mass. The strawberries corresponding to bar 710 were treated with a solution for which the coating agent was 25% PA-1G and 75% PA-2G by mass. The strawberries corresponding to bar 712 were treated with a solution for which the coating agent was substantially pure PA-2G. […] FIG. 7A is a graph showing average daily mass loss rates, measured over the course of 4 days, of the untreated strawberries and of the strawberries coated with one of the five solutions described above. […]

For `CCCCCCCCCCCCCCCC(=O)OC(CO)CO` [PA-2G, 1,3-dihydroxypropan-2-yl palmitate], the “average daily mass loss rate” value was 6.1%.
